The values below come from EP4707277A1, “NOVEL HETEROCYCLIC AMINE DERIVATIVES AND PHARMACEUTICAL COMPOSITION COMPRISING SAME” (Daewoong Pharmaceutical Co., Ltd., priority 2023, dated 2024).

Where two headings read alike, the source gives them in different places.

The target in assay [1] is T1, BTK (Homo sapiens, UniProt Q06187).
T1 construct: purchased Signalchem B10-10H
The assay is described as follows: Inhibitory activity against BTK, ADP-Glo Kinase system (Promega). Format: biochemical. Put shortly: (§1)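 IC50 values were fitted from kinase reactions run for 1 h at 30°C with either 1 mM ATP or ATP at Km (10 µM for BTK, 25 µM for ITK). Reactions used 0.2 µg/µl poly(Glu4,Tyr1), recombinant human enzyme (BTK 10 ng, ITK 4 ng per reaction) in Tris pH 7.5 Mn/Mg buffer with 1% DMSO. ADP formed was read by ADP-Glo luminescence.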

Assay [2] deals with T2, ITK (Homo sapiens, UniProt Q08881).
T2 construct: purchased Signalchem I13-11G-10
T2 sequence (Q08881 1-620): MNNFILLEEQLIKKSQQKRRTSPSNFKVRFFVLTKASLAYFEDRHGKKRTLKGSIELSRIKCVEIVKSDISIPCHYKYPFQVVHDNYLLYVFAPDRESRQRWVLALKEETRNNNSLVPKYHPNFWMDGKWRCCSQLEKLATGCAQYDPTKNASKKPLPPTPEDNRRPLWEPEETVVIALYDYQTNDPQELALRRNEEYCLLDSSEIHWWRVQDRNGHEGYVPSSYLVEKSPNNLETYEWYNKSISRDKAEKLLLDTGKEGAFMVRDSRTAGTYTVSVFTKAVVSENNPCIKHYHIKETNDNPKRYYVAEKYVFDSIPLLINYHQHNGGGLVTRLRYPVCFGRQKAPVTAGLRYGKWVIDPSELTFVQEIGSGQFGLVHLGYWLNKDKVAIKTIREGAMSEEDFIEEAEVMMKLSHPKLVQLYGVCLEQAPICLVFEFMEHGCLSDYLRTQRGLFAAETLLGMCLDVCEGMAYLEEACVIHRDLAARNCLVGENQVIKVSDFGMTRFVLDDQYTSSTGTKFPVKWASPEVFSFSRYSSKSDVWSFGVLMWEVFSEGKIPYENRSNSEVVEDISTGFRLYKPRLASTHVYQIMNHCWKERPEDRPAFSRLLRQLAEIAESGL
In words: Inhibitory activity against ITK, ADP-Glo Kinase system (Promega). It counts as biochemical. In outline: as §1

The mark [3] stands for this setting: 1mM ATP, read-out: BTK IC50(nM) 1mM ATP.
[4] abbreviates: Km ATP (BTK: 10 uM), read-out: BTK IC50(nM) Km ATP.
Where [5] appears, read: 1mM ATP, read-out: ITK IC50(nM) 1mM ATP.
Setting [6] is: Km ATP (ITK: 25uM), read-out: ITK IC50(nM) Km ATP.

T1 sequence (Q06187 whole entry): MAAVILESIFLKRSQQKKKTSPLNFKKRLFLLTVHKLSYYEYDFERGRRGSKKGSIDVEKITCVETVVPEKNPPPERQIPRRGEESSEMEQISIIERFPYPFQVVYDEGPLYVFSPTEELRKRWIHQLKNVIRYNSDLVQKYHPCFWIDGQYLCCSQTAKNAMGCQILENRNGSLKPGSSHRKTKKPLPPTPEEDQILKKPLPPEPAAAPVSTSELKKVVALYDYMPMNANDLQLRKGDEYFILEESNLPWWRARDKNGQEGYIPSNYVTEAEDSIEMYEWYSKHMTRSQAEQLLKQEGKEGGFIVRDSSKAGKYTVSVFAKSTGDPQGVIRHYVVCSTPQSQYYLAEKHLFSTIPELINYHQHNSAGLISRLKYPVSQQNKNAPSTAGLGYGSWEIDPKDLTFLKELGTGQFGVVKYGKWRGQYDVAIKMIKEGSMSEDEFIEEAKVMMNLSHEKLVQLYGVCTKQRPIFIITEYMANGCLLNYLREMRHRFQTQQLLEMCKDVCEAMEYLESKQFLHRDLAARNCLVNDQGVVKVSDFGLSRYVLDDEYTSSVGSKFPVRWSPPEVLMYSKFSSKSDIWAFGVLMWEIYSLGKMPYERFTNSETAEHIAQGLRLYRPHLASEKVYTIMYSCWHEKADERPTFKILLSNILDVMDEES

Turning to `C=CC(=O)Nc1ccc(F)c(-c2nc(Nc3ncc(C)s3)cc3c2ccn3CC(F)F)c1` [Example 75, N-(3-(1-(2,2-difluoroethyl)-6-((5-methylthiazol-2-yl)amino)-1H-pyrrolo[3,2-c]pyridin-4-yl)-4-fluorophenyl)acrylamide], the concentration for half-maximal inhibition (IC50) in assay [1] (setting [3]) was 20 to 100 nM; in assay [1] (setting [4]), at most 20 nM; in assay [2] (setting [5]), 100 to 500 nM; in assay [2] (setting [6]) it was at most 20 nM.
Turning to `C=CC(=O)N1CC(C)(Oc2nc(Nc3ncc(C)s3)cc3c2ccn3CC2CCCC2)C1` [Example 178, 1-(3-((1-(cyclopentylmethyl)-6-((5-methylthiazol-2-yl)amino)-1H-pyrrolo[3,2-c]pyridin-4-yl)oxy)-3-methylazetidin-1-yl)prop-2-en-1-one], the 50% inhibitory concentration (IC50) in assay [1] (setting [3]) and in assay [2] (setting [5]) was at most 20 nM in each case.
On to `C=CC(=O)N1C2C=C(c3nc(Nc4ncc(C)s4)cc4c3ccn4CC(F)(F)F)CC1CC2` (centres unmarked) [Example 35, 1-(3-(6-((5-methylthiazol-2-yl)amino)-1-(2,2,2-trifluoroethyl)-1H-pyrrolo[3,2-c]pyridin-4-yl)-8-azabicyclo[3.2.1]oct-2-en-8-yl)prop-2-en-1-one], for which the IC50 in assay [1] (setting [3]) and in assay [2] (setting [5]) was at most 20 nM in each case.
As for `C=CC(=O)Nc1cc(-c2nc(Nc3ncc(C)s3)cc3c2ccn3CC2CC2)c(F)cc1F` [Example 66, N-(5-(1-(cyclopropylmethyl)-6-((5-methylthiazol-2-yl)amino)-1H-pyrrolo[3,2-c]pyridin-4-yl)-2,4-difluorophenyl)acrylamide], the IC50 was at most 20 nM in assay [1] (setting [3]), at most 20 nM in assay [1] (setting [4]), 20 to 100 nM in assay [2] (setting [5]) and at most 20 nM in assay [2] (setting [6]).
For `C=CC(=O)N1C2C=C(c3nc(Nc4ncc(C)s4)cc4c3ccn4C3CCCC3)CC1CC2` (centres unmarked) [Example 33, 1-(3-(1-cyclopentyl-6-((5-methylthiazol-2-yl)amino)-1H-pyrrolo[3,2-c]pyridin-4-yl)-8-azabicyclo[3.2.1]oct-2-en-8-yl)prop-2-en-1-one], the IC50 in assay [1] (setting [3]) and in assay [2] (setting [5]) was at most 20 nM throughout.
As for `C=CC(=O)N1CC[C@@H]1COc1nc(Nc2ncc(C)s2)cc2c1ccn2C1CCCC1` [Example 223, (R)-1-(2-(((1-cyclopentyl-6-((5-methylthiazol-2-yl)amino)-1H-pyrrolo[3,2-c]pyridin-4-yl)oxy)methyl)azetidin-1-yl)prop-2-en-1-one], the IC50 in assay [1] (setting [3]) and in assay [2] (setting [5]) was at most 20 nM each time.
Consider `C=CC(=O)N1CC=C(c2nc(Nc3ccncn3)cc3c2ccn3C(C)C)CC1` [Example 43, 1-(4-(1-isopropyl-6-(pyrimidin-4-ylamino)-1H-pyrrolo[3,2-c]pyridin-4-yl)-3,6-dihydropyridin-1(2H)-yl)prop-2-en-1-one], for which the values for the IC50 in assay [1] (setting [3]) and in assay [2] (setting [5]) were at most 20 nM and 20 to 100 nM, respectively.
The matching figures for `C=CC(=O)N1C[C@@H](F)[C@H](Oc2nc(Nc3ncc(C)s3)cc3c2ccn3CC2CCCC2)C1` [Example 170, 1-((3R,4R)-3-((1-(cyclopentylmethyl)-6-((5-methylthiazol-2-yl)amino)-1H-pyrrolo[3,2-c]pyridin-4-yl)oxy)-4-fluoropyrrolidin-1-yl)prop-2-en-1-one]: at most 20 nM and at most 20 nM.
For `C=CC(=O)N1CCC[C@H]1COc1nc(Nc2ncc(C)s2)cc2c1ccn2C1CCCC1` [Example 222, (S)-1-(2-(((1-cyclopentyl-6-((5-methylthiazol-2-yl)amino)-1H-pyrrolo[3,2-c]pyridin-4-yl)oxy)methyl)pyrrolidin-1-yl)prop-2-en-1-one], the 50% inhibitory concentration (IC50) in assay [1] (setting [3]) is at most 20 nM; in assay [2] (setting [5]) it was 20 to 100 nM.
The matching figures for `C#CC(=O)N1CC[C@H](Oc2nc(Nc3ncc(C)s3)cc3c2ccn3CC(C)C)C1` [Example 225, (S)-1-(3-((1-isobutyl-6-((5-methylthiazol-2-yl)amino)-1H-pyrrolo[3,2-c]pyridin-4-yl)oxy)pyrrolidin-1-yl)prop-2-yn-1-one]: at most 20 nM and at most 20 nM.
On to `C=CC(=O)N1CC=C(c2nc(Nc3ncc(C)s3)cc3c2ccn3CC(F)F)CC1` [Example 12, 1-(4-(1-(2,2-difluoroethyl)-6-((5-methylthiazol-2-yl)amino)-1H-pyrrolo[3,2-c]pyridin-4-yl)-3,6-dihydropyridin-1(2H)-yl)prop-2-en-1-one], for which the concentration for half-maximal inhibition (IC50) in assay [1] (setting [3]), in assay [1] (setting [4]), in assay [2] (setting [5]) and in assay [2] (setting [6]) was at most 20 nM each time.
`C=CC(=O)N1CC[C@H](Oc2nc(Nc3ncc(C)s3)cc3c2ccn3Cc2ccccn2)C1` [Example 117, (S)-1-(3-((6-((5-methylthiazol-2-yl)amino)-1-(pyridin-2-ylmethyl)-1H-pyrrolo[3,2-c]pyridin-4-yl)oxy)pyrrolidin-1-yl)prop-2-en-1-one]: the IC50 in assay [1] (setting [4]) and in assay [2] (setting [6]) was at most 20 nM throughout.
For `C=CC(=O)N1CC[C@H](Oc2nc(Nc3cc(C(F)(F)F)ncn3)cc3c2ccn3C(C)C)C1` [Example 95, (S)-1-(3-((1-isopropyl-6-((6-(trifluoromethyl)pyrimidin-4-yl)amino)-1H-pyrrolo[3,2-c]pyridin-4-yl)oxy)pyrrolidin-1-yl)prop-2-en-1-one], the values for the IC50 in assay [1] (setting [3]) and in assay [2] (setting [5]) were at most 20 nM and 100 to 500 nM, respectively.
In the case of `C=CC(=O)N1C2C=C(c3nc(Nc4ncc(C)s4)cc4c3ccn4CC3(C(F)(F)F)CC3)CC1CC2` (centres unmarked) [Example 30, 1-(3-(6-((5-methylthiazol-2-yl)amino)-1-((1-(trifluoromethyl)cyclopropyl)methyl)-1H-pyrrolo[3,2-c]pyridin-4-yl)-8-azabicyclo[3.2.1]oct-2-en-8-yl)prop-2-en-1-one], the 50% inhibitory concentration (IC50) in assay [1] (setting [3]) and in assay [2] (setting [5]) was at most 20 nM each time.
Take `C=CC(=O)N1C[C@@H](Oc2nc(Nc3ncc(C)s3)cc3c2ccn3CC(C)C)C[C@H]1C` [Example 96, 1-((2R,4S)-4-((1-isobutyl-6-((5-methylthiazol-2-yl)amino)-1H-pyrrolo[3,2-c]pyridin-4-yl)oxy)-2-methylpyrrolidin-1-yl)prop-2-en-1-one]: the IC50 in assay [1] (setting [3]) and in assay [2] (setting [5]) was at most 20 nM in each case.
On to `C=CC(=O)N1CC(C)(Oc2nc(Nc3ncc(C)s3)cc3c2ccn3CC(C)C)C1` [Example 119, 1-(3-((1-isobutyl-6-((5-methylthiazol-2-yl)amino)-1H-pyrrolo[3,2-c]pyridin-4-yl)oxy)-3-methylazetidin-1-yl)prop-2-en-1-one], for which the IC50 in assay [1] (setting [4]) and in assay [2] (setting [6]) was at most 20 nM throughout.
`C=CC(=O)Nc1ccc(F)c(-c2nc(Nc3ncc(C)s3)cc3c2ccn3CC2CCOC2)c1` (centres unmarked) [Example 71, N-(4-fluoro-3-(6-((5-methylthiazol-2-yl)amino)-1-((tetrahydrofuran-3-yl)methyl)-1H-pyrrolo[3,2-c]pyridin-4-yl)phenyl)acrylamide]: the IC50 in assay [1] (setting [4]) and in assay [2] (setting [6]) was at most 20 nM throughout.
Consider `C=CC(=O)Nc1cc(C)cc(-c2nc(Nc3ncc(C)s3)cc3c2ccn3C)c1` [Example 53, N-(3-methyl-5-(1-methyl-6-((5-methylthiazol-2-yl)amino)-1H-pyrrolo[3,2-c]pyridin-4-yl)phenyl)acrylamide], for which the figures for the IC50 in assay [1] (setting [4]) and in assay [2] (setting [6]) were at most 20 nM and 100 to 500 nM, respectively.
For `C=CC(=O)N1CC=C(c2nc(Nc3ncc(C)s3)cc3c2ccn3CC2CCCC2)CC1` [Example 10, 1-(4-(1-(cyclopentylmethyl)-6-((5-methylthiazol-2-yl)amino)-1H-pyrrolo[3,2-c]pyridin-4-yl)-3,6-dihydropyridin-1(2H)-yl)prop-2-en-1-one] the same measures were at most 20 nM and 20 to 100 nM.
Turning to `C=CC(=O)N1C[C@@H](F)[C@H](Oc2nc(Nc3ncc(C)s3)cc3c2ccn3CCC(C)C)C1` [Example 115, 1-((3R,4R)-3-fluoro-4-((1-isopentyl-6-((5-methylthiazol-2-yl)amino)-1H-pyrrolo[3,2-c]pyridin-4-yl)oxy)pyrrolidin-1-yl)prop-2-en-1-one], the IC50 in assay [1] (setting [4]) and in assay [2] (setting [6]) was at most 20 nM in each case.
With `C=CC(=O)N1C[C@H](F)[C@H](Oc2nc(Nc3ncc(C)s3)cc3c2ccn3CC)C1` [Example 152, 1-((3R,4S)-3-((1-ethyl-6-((5-methylthiazol-2-yl)amino)-1H-pyrrolo[3,2-c]pyridin-4-yl)oxy)-4-fluoropyrrolidin-1-yl)prop-2-en-1-one], the IC50 in assay [1] (setting [3]) and in assay [2] (setting [5]) was at most 20 nM in each case.
Turning to `C=CC(=O)Nc1ccc(F)c(-c2nc(Nc3ncc(C)s3)cc3c2ccn3C2CCCC2)c1` [Example 70, N-(3-(1-cyclopentyl-6-((5-methylthiazol-2-yl)amino)-1H-pyrrolo[3,2-c]pyridin-4-yl)-4-fluorophenyl)acrylamide], the half-maximal inhibitory concentration (IC50) in assay [1] (setting [3]) was at most 20 nM; in assay [2] (setting [5]) it was 20 to 100 nM.
